# In patent US20010049389A1, “Arthropod-controlling composition” (priority 2000, published 2001):
# Columns and labels:
# Type in all cases: in vivo
# [1] = tested on: first-instar larvae of summer fruit tortrix (Adoxophyes orana fasciata); experiment: Test Example 19: treated artificial food, summer fruit tortrix larvae; details: 1 ml of 500 ppm dilution (Preparation example 2) in 6 g artificial food, after 6 days
# Experimental: The formulation obtained in Preparation example 2 was diluted with water to make the concentration of the Pyrone Compound to 500 ppm. One milliter (1 ml) of the dilution was added to 6 g of artificial food (Insecta LF produced by Nihon Nosankogyo Co.) in plastic cup having 5.5 cm in diameter. Thirty first-instar larvae of summer fruit tortrix (Adoxophyes orana fasciata) were put into the plastic cup. After 6 days, the mortality was 90% or more.
# [2] = tested on: cotton aphids (Aphis gossypii); experiment: Test Example 15: foliar spray on cucumber, cotton aphids; details: 500 ppm dilution of flowable (Preparation example 7), 30 ml sprayed, after 6 days
# Experimental: About 30 cotton aphids (Aphis gossypii) were put on a cucumber leaf (in first-leaf stage) grown in a 90 ml plastic cup.
# Next day, the formulation obtained in Preparation example 7 was diluted with water containing a spreading agent (Tokurino produced by Nihon Nohyaku Co.) to make the concentration of the Pyrone Compound to 500 ppm. Thirty milliliters (30 ml) of the dilution were sprayed to the cucumber and air-dried. The plastic pot was put in a container and allowed to stand at 22±2° C. in a greenhouse. After 6 days, the mortality was 90% or more.
# [3] = tested on: adult cat fleas (Ctenocephalides felis); experiment: Test Example 7: treated filter paper contact, adult cat fleas; details: three repetitions
# Experimental: A designated amount of the Pyrone Compound was dissolved in acetone to give a 0.2 ml solution, which was uniformly treated on a filter paper having 3.8 cm in diameter, and air-dried for one hour. The filter paper was filled in a lid of a 200 ml glass bottle. Twenty adult cat fleas (Ctenocephalides felis) were released in the glass bottle, which was followed by covering with the lid. The glass bottle was upset for making the fleas contact with the filter paper, and kept at room temperature (25±3° C.) for one day. After that, the mortality was observed.
# ants (Formica japonica) = experiment: Test Example 14: oil-based aerosol spray, ants; details: about 450 mg of 1.0% oil-based aerosol sprayed, after 2 days
# Experimental: According to Preparation examples 10-14, 1.0% oil-based aerosol of the Pyrone Compound was obtained. In a 200 cc plastic cup having inside wall painted talc for preventing tested ants to escape, about 30 g of soil were set and 10 ants (Formica japonica) were release thereon. The plastic cup was set on the bottom center of a glass cylinder having 20 cm in diameter and 60 cm in height. About 450 mg of the above oil-based aerosol were sprayed to the ants from the upper part of the cylinder. After 10 seconds, the ants were taken out and put into a clean plastic cup having a piece of watermelon peel as food therein. After 2 days, the mortality was observed and the result was 70%.
# adult Porcellio scaber = experiment: Test Example 13: oil-based aerosol spray, Porcellio scaber; details: about 450 mg of 1.0% oil-based aerosol sprayed, after 3 days
# Experimental: According to Preparation examples 10-14, 1.0% oil-based aerosol of the Pyrone Compound was obtained. A container (8.75 cm in diameter, 7.5 cm in height, bottom covered 16-mesh iron net and inside wall painted butter for preventing tested pill bugs to escape) having 5 adult pill bugs (Armadillidium vulgare) therein was set on the bottom center of a glass cylinder having 20 cm in diameter and 60 cm in height. About 450 mg of the above oil-based aerosol were sprayed to the pill bugs from the upper part of the cylinder. After 30 seconds, the pill bugs were taken out and put into a clean plastic cup having soil and dead leaves therein. The pill bugs were given food and water and observed after 3 days. The tests were repeated twice. The mortality was 100%. Reference compound was also tested and the mortality was 40%.
# The same procedure was performed as in Test example 12 except that 5 adult Porcellio scaber were used in place of Armadillidium vulgare. As a result, the mortality of the Pyrone Compound was 100%.
# [4] = tested on: adult American house dust mites (Dermatophagoides farinae); experiment: Test Example 10: treated drawing paper, American house dust mites; details: drawing paper 800 mg/m^2, 25° C., 65% humidity, 24 hours
# Experimental: On a black drawing paper having 38 mm in diameter, 0.2 ml of an acetone solution of the Pyrone Compound was added dropwise and air-dried. The treated dosage was 800 mg/m^2. The drawing paper was set on an aluminum plate having 38 mm in diameter and adhesives were put on the edge to prevent for tested mites to escape. About 30 adult American house dust mites (Dermatophagoides farinae) were released on the drawing paper and kept at 25° C. and 65% of humidity for 24 hours. After that, the mortality was observed. The result was 100%.
# [5] = tested on: adult houseflies (Musca domestica); experiment: Test Example 1: oil solution spray in glass chamber, knock-down of houseflies; details: 0.7 ml of 0.5% oil solution (Preparation example 9) sprayed in 0.34 m^3 glass chamber
# Experimental: Ten (5 males and 5 females) adult houseflies (Musca domestica) were released in a glass chamber (70 cm cube, capacity: 0.34 m^3). Seven-tenth milliliter (0.7 ml) of the oil solution obtained in Preparation example 9 was applied into the chamber with a spray gun at a pressure of 0.9 kg/cm^2. Fifteen minutes after spraying, the knocked-down houseflies were counted. Reference compound was also tested.
# [6] = tested on: eggs of peach fruit moth (Carposina niponensis); experiment: Test Example 20: treated artificial food, peach fruit moth eggs; details: 1 ml of 500 ppm dilution (Preparation example 2) in 6 g artificial food, after 10 days
# Experimental: The formulation obtained in Preparation example 2 was diluted with water to make the concentration of the Pyrone Compound to 500 ppm. One milliliter (1 ml) of the dilution was added to 6 g of artificial food (Insecta LF produced by Nihon Nosankogyo Co.) in plastic cup having 5.5 cm in diameter. About 50 eggs of peach fruit moth (Carposina niponensis) laid on nylon cloth were put into the plastic cup. After 10 days, the ovicidal effect was 90% or more.
# [7] = tested on: adult smokybrown cockroaches (Periplaneta fuliginosa); experiment: Test Example 5: heating fumigant (ceramic plate) in 5.8 m^3 chamber, smokybrown cockroaches; details: heating fumigant (Preparation example 24, 500 mg) at about 200° C. in 5.8 m^3 chamber
# Experimental: On the bottom of a cubic chamber having 1.8 m of side (5.8 m^3), the heating fumigant (ceramic plate) obtained in Preparation example 24 with an electric heater was set in the center. Two plastic cups were put at two corners in the chamber, wherein each cup has ten (5 males and 5 females) adult German cockroaches (Blattella germanica) therein. Two hours after turning on an electric current, the ceramic plate was heated to about 200° C. (200±5° C.) and the active ingredient was vaporized. The heating temperature was estimated by measuring a surface temperature of the ceramic plate with radiation pyrometer (TR-0506C produced by Minolta Company) in advance. Then, the knocked-down cockroaches were counted and the knock-down percentage was calculated. Further, the cockroaches were transferred to a clean plastic cup and given foods and water. The mortality was observed after 7 days.
# Furthermore, the same tests were performed except that six (3 males and 3 females) adult smokybrown cockroaches (Periplaneta fuliginosa) and six (3 males and 3 females) adult American cockroaches (Periplaneta americana) were used in place of ten German cockroaches.
smiles,measurement,setting,value
Cc1cc(O)c(C(=O)CC(C)C)c(=O)o1 [The Pyrone Compound],mortality,[1],≥ 90%
same,mortality,[2],≥ 90%
same,Mortality (%),"[3]; dosage 200 mg/m^2, one day",98%
same,Mortality (%),"[3]; dosage 800 mg/m^2, one day",100%
same,mortality,ants (Formica japonica),70%
same,mortality,adult Porcellio scaber,100%
same,mortality,[4],100%
same,Knock-down percentage (%) 15 min. after spraying,[5],95%
same,ovicidal effect,[6],≥ 90%
same,Mortality (%),[7]; after 7 days,83%
same,Knock-down percentage (%),[7]; two hours,100%
